Values of other authors, collected in US7632837B2, “Bicyclic heterocycles as cannabinoid-1 receptor modulators” (Bristol-Myers Squibb Company, priority 2005, dated 2009).

Assays:
[1] = chronic administration for two weeks
[2] = 16 week trial period; published Phase IIb data

| SMILES | body weight [1] | body weight in human subjects [2] |
| --- | --- | --- |
| Cc1c(C(=O)NN2CCCCC2)nn(-c2ccc(Cl)cc2Cl)c1-c1ccc(I)cc1 [AM-251] | substantial body weight reduction |  |
| Cc1c(C(=O)NN2CCCCC2)nn(-c2ccc(Cl)cc2Cl)c1-c1ccc(Cl)cc1 [SR-141716] |  | dose-dependently reduced body weight |
